Values quoted from earlier work, collected in US7718595B2, “Light duty liquid cleaning compositions and methods of manufacture and use thereof comprising organic acids” (priority 2008, dated 2010).

Key:
[1] = list category
[2] = not given; remark: listed apart in the source

Row | Molecule | EPA Inert List [1] | pKa | solubility in water [2]
1 | CCO [Ethanol] | 4B |  | 
2 | CC(O)C(=O)O (centres unmarked) [Lactic acid] | 4B | about 3.8 | 
3 | CCCCCCCCCCCC(=O)NCCC[N+](C)(C)CC(=O)[O-] [Laurylamidopropyl Betaine] | 3 |  | 
4 | O=S(=O)([O-])[O-].[Mg+2] [Mg2SO4] | 4A |  | 
5 | O=C([O-])CN(CCN(CC(=O)[O-])CC(=O)[O-])CC(=O)[O-].[Na+].[Na+].[Na+].[Na+] [Na4EDTA] | 4B |  | 
6 | O=P(O)(O)OP(=O)(O)OP(=O)(O)O [Sodium tripolyphosphate] |  |  | about 14 wt-%
7 | sodium xylene sulfonate [SXS] | 3 |  | 
